Source: the NIST ThermoML archive (doi:10.1021/acs.jced.6b00430)
± gives the expanded uncertainty stated by the source.

Assay: xn = mol fraction of the nth substance listed
Settings: 100 kPa, Liquid; for mass density: Vibrating tube method; for electrical conductivity: Alternating current cell with electrodes; for viscosity: Concentric cylinders viscometry

O=[PH](O)O [phosphonic acid] + CN(C)C=O
Settings	electrical conductivity [S/m]	mass density [kg/m3]	viscosity [mPa·s]
318.15 K, x1 = 0.421	–	1170.67 ± 10	–
318.15 K, x1 = 0.4479	–	1189.61 ± 10	–
318.15 K, x1 = 0.4707	–	1204.42 ± 10	–
318.15 K, x1 = 0.493	–	1218.59 ± 10	–
318.15 K, x1 = 0.5074	–	1227.51 ± 10	–
318.15 K, x1 = 0.5196	–	1237.92 ± 10	–
318.15 K, x1 = 0.5429	–	1253.45 ± 10	–
318.15 K, x1 = 0.5724	–	1275.06 ± 10	–
318.15 K, x1 = 0.5925	–	1289.1 ± 10	–
318.15 K, x1 = 0.6245	–	1311.81 ± 10	–
318.15 K, x1 = 0.6554	–	1339.01 ± 10	–
318.15 K, x1 = 0.6753	–	1347.93 ± 10	–
318.15 K, x1 = 0.6923	–	1362.29 ± 10	–
318.15 K, x1 = 0.7142	–	1382.56 ± 10	–
318.15 K, x1 = 0.725	–	1385.03 ± 10	–
318.15 K, x1 = 0.7592	–	1416.55 ± 10	–
318.15 K, x1 = 0.7694	–	1427.77 ± 10	–
318.15 K, x1 = 0.7845	–	1434.51 ± 10	–
328.15 K, x1 = 0.0911	–	962.58 ± 10	–
328.15 K, x1 = 0.1181	0.0815 ± 0.0082	–	–
328.15 K, x1 = 0.1365	–	987.46 ± 10	–
328.15 K, x1 = 0.1798	–	1011.93 ± 10	–
328.15 K, x1 = 0.1829	–	1013.72 ± 10	–
328.15 K, x1 = 0.1973	–	–	1.92 ± 0.12
328.15 K, x1 = 0.2293	–	1040.86 ± 10	–
328.15 K, x1 = 0.2507	–	–	2.88 ± 0.17
328.15 K, x1 = 0.291	–	1078.19 ± 10	–
328.15 K, x1 = 0.2984	0.173 ± 0.017	–	4.07 ± 0.25
328.15 K, x1 = 0.3115	–	–	4.29 ± 0.26
328.15 K, x1 = 0.3298	0.183 ± 0.018	1102.77 ± 10	–
328.15 K, x1 = 0.3442	–	1111.65 ± 10	–
328.15 K, x1 = 0.3491	–	–	6.02 ± 0.36
328.15 K, x1 = 0.3712	–	1129.07 ± 10	–
328.15 K, x1 = 0.3937	–	1143.78 ± 10	–
328.15 K, x1 = 0.3968	0.275 ± 0.028	–	8.65 ± 0.52
328.15 K, x1 = 0.3988	–	–	8.5 ± 0.51
328.15 K, x1 = 0.4107	–	1155.04 ± 10	9.62 ± 0.58
328.15 K, x1 = 0.421	–	1161.92 ± 10	–
328.15 K, x1 = 0.4479	0.316 ± 0.032	1180.89 ± 10	12.3 ± 0.7
328.15 K, x1 = 0.4707	–	1195.74 ± 10	–
328.15 K, x1 = 0.493	–	1211.17 ± 10	–
328.15 K, x1 = 0.4968	–	–	16.2 ± 1
328.15 K, x1 = 0.5074	–	1221.28 ± 10	16 ± 1
328.15 K, x1 = 0.5196	–	1229.86 ± 10	–
328.15 K, x1 = 0.5429	–	1246.5 ± 10	–
328.15 K, x1 = 0.5503	–	–	22 ± 1.3
328.15 K, x1 = 0.5724	–	1267.84 ± 10	–
328.15 K, x1 = 0.5761	0.512 ± 0.051	–	24.9 ± 1.5
328.15 K, x1 = 0.5925	–	1282.63 ± 10	–
328.15 K, x1 = 0.5993	–	–	25.5 ± 1.5
328.15 K, x1 = 0.6245	–	1306.4 ± 10	–
328.15 K, x1 = 0.6261	–	–	29.5 ± 1.8
328.15 K, x1 = 0.6316	0.71 ± 0.071	–	30.1 ± 1.8
328.15 K, x1 = 0.6478	–	–	32.2 ± 1.9
328.15 K, x1 = 0.6554	0.802 ± 0.08	1330.73 ± 10	32 ± 1.9
328.15 K, x1 = 0.682	1.07 ± 0.11	–	34.4 ± 2.1
328.15 K, x1 = 0.7142	–	1375.29 ± 10	37.1 ± 2.2
328.15 K, x1 = 0.725	–	1383.85 ± 10	–
328.15 K, x1 = 0.7592	–	1411.1 ± 10	–
328.15 K, x1 = 0.7694	1.77 ± 0.18	1419.7 ± 10	39.8 ± 2.4
328.15 K, x1 = 0.7832	1.91 ± 0.19	–	40.5 ± 2.4
328.15 K, x1 = 0.7845	–	1430.74 ± 10	–
338.15 K, x1 = 0.0911	–	954.96 ± 10	–
338.15 K, x1 = 0.1365	–	979.11 ± 10	–
338.15 K, x1 = 0.1798	–	1003.68 ± 10	–
338.15 K, x1 = 0.1829	–	1004.95 ± 10	–
338.15 K, x1 = 0.1973	–	–	1.67 ± 0.1
338.15 K, x1 = 0.2293	–	1032.82 ± 10	–
338.15 K, x1 = 0.2507	–	–	2.45 ± 0.15
338.15 K, x1 = 0.291	–	1068.59 ± 10	–
338.15 K, x1 = 0.2984	0.212 ± 0.021	–	3.49 ± 0.21
338.15 K, x1 = 0.3115	–	–	3.66 ± 0.22
338.15 K, x1 = 0.3298	0.226 ± 0.023	1093.82 ± 10	–
338.15 K, x1 = 0.3442	–	1102.06 ± 10	–
338.15 K, x1 = 0.3491	–	–	5.02 ± 0.3
338.15 K, x1 = 0.3712	–	1119.72 ± 10	–
338.15 K, x1 = 0.3937	–	1133.99 ± 10	–
338.15 K, x1 = 0.3968	0.351 ± 0.035	–	7 ± 0.42
338.15 K, x1 = 0.3988	–	–	6.98 ± 0.42
338.15 K, x1 = 0.4107	–	1155.74 ± 10	7.75 ± 0.47
338.15 K, x1 = 0.421	–	1160.23 ± 10	–
338.15 K, x1 = 0.4479	0.356 ± 0.036	1172.2 ± 10	9.91 ± 0.6
338.15 K, x1 = 0.4707	–	1187.28 ± 10	–
338.15 K, x1 = 0.493	–	1201.35 ± 10	–
338.15 K, x1 = 0.4968	–	–	12.7 ± 0.8
338.15 K, x1 = 0.5074	–	1210.34 ± 10	11.6 ± 0.7
338.15 K, x1 = 0.5196	–	1220.86 ± 10	–
338.15 K, x1 = 0.5429	–	1236.41 ± 10	–
338.15 K, x1 = 0.5503	–	–	17.2 ± 1
338.15 K, x1 = 0.5724	–	1258.27 ± 10	–
338.15 K, x1 = 0.5761	0.642 ± 0.064	–	18.7 ± 1.1
338.15 K, x1 = 0.5925	–	1272.25 ± 10	–
338.15 K, x1 = 0.5993	–	–	19.2 ± 1.2
338.15 K, x1 = 0.6245	–	1295.1 ± 10	–
338.15 K, x1 = 0.6261	–	–	22.6 ± 1.4
338.15 K, x1 = 0.6316	0.891 ± 0.089	–	22.3 ± 1.3
338.15 K, x1 = 0.6478	–	–	23.8 ± 1.4
338.15 K, x1 = 0.6554	1.06 ± 0.11	1322.46 ± 10	23.6 ± 1.4
338.15 K, x1 = 0.6753	–	1331.43 ± 10	–
338.15 K, x1 = 0.682	1.39 ± 0.14	–	25.2 ± 1.5
338.15 K, x1 = 0.6923	–	1345.85 ± 10	–
338.15 K, x1 = 0.7142	–	1374.38 ± 10	27 ± 1.6
338.15 K, x1 = 0.725	–	1368.62 ± 10	–
338.15 K, x1 = 0.7592	–	1400.4 ± 10	–
338.15 K, x1 = 0.7694	2.29 ± 0.23	1411.68 ± 10	28.6 ± 1.7
338.15 K, x1 = 0.7832	2.42 ± 0.24	–	29.1 ± 1.8
338.15 K, x1 = 0.7845	–	1422.74 ± 10	–
348.15 K, x1 = 0.0911	–	945.43 ± 10	–
348.15 K, x1 = 0.1365	–	969.77 ± 10	–
348.15 K, x1 = 0.1798	–	994.4 ± 10	–
348.15 K, x1 = 0.1829	–	995.9 ± 10	–
348.15 K, x1 = 0.2293	–	1023.58 ± 10	–
348.15 K, x1 = 0.291	–	1059.58 ± 10	–
348.15 K, x1 = 0.3298	–	1084.14 ± 10	–
348.15 K, x1 = 0.3442	–	1093.18 ± 10	–
348.15 K, x1 = 0.3712	–	1110.71 ± 10	–
348.15 K, x1 = 0.3937	–	1125.23 ± 10	–
348.15 K, x1 = 0.4107	–	1147 ± 10	–
348.15 K, x1 = 0.421	–	1150.66 ± 10	–
348.15 K, x1 = 0.4479	–	1158.49 ± 10	–
348.15 K, x1 = 0.4707	–	1177.52 ± 10	–
348.15 K, x1 = 0.493	–	1192.77 ± 10	–
348.15 K, x1 = 0.5074	–	1201.8 ± 10	–
348.15 K, x1 = 0.5196	–	1210.75 ± 10	–
348.15 K, x1 = 0.5429	–	1227.92 ± 10	–
348.15 K, x1 = 0.5724	–	1254.23 ± 10	–
348.15 K, x1 = 0.5925	–	1263.87 ± 10	–
348.15 K, x1 = 0.6245	–	1286.78 ± 10	–
348.15 K, x1 = 0.6554	–	1310.01 ± 10	–
348.15 K, x1 = 0.6753	–	1324.98 ± 10	–
348.15 K, x1 = 0.6923	–	1337.69 ± 10	–
348.15 K, x1 = 0.7142	–	1366.2 ± 10	–
348.15 K, x1 = 0.725	–	1373 ± 10	–
348.15 K, x1 = 0.7592	–	1394.6 ± 10	–
348.15 K, x1 = 0.7694	–	1401.02 ± 10	–
348.15 K, x1 = 0.7845	–	1410.65 ± 10	–
